The values below come from patent US20260216170A1, “TETRAHYDROISOQUINOLINE HETEROBIFUNCTIONAL BCL-XL DEGRADERS” (Treeline Biosciences, Inc., priority 2023, published 2026).

In this experiment the target is T1, Human BCL-XL protein (N-terminal HiBiT tagged BCL-XL expressed in HT1080 cells) (Homo sapiens, UniProt Q07817).
T1 construct: expressed in transfected cells; host or cells: HT-1080 (ATCC CCL-121), stably transduced with lentivirus pLV-UBC-N-HiBiT-BCL-XL-PGK-puro and selected with puromycin
T1 sequence (Q07817 whole entry): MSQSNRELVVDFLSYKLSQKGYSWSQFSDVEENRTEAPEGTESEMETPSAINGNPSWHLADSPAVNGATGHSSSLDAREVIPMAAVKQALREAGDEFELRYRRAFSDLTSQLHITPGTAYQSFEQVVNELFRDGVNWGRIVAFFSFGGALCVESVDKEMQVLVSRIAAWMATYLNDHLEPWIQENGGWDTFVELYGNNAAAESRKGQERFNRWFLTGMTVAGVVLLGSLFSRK
Description: HiBiT Based Degradation Assay. Type of experiment: cell-based. Conditions: 24 hours incubation; for DC50: BCL-XL degradation, HT1080 cells expressing N-HiBiT-BCL-XL, normalized with DMSO control, geometric mean for multiple data points, read-out: EC50 (24 h); for Ymin (24 h): bottom of BCL-XL degradation curve (remaining HiBiT-BCL-XL signal vs DMSO control), HT1080 cells. An excerpt: HiBiT Based Degradation Assay
Human BCL-XL protein coding open reading frame fused with N-terminal HiBiT coding sequence (N-HiBiT-BCL-XL) was synthesized from Integrated DNA Technologies (IDT). Next, N-HiBiT-BCL-XL sequence was cloned into pLV-UBC-PGK-Puro, a lentivirus plasmid purchased from Vectorbuilder, to generate pLV-UBC-N-HiBiT-BCL-XL-PGK-puro. Lentiviral particles were generated from Lenti-X™ 293T cells (Clontech) by co-transfection of pLV-UBC-N-HiBiT-BCL-XL-PGK-puro plasmids and lentiviral packaging plasmid mix (Cellecta). HT-1080 [HT1080](ATCC CCL-121™) cells were infected with the lentivirus, and HT1080 cells stably integrated with the lentiviral vector were established by incubation with 1 μg/mL puromycin (Thermofisher). HT1080 cells expressing N-terminal HiBiT tagged BCL-XL were dispensed into 384-well plates pre-spotted with compounds at varying concentrations. Three thousand cells were seeded into each well in 40 μL of RPMI 1640 media. After 24 hours of incubation at 37° C. with 5% CO2, 30 μL of the NANO-GLO® HiBiT Lytic Detection System working solution (Promega) was added to each well and incubated at room temperature for 30 min. After incubation, luminescence was read on a PHERAstar FSX Plate Reader (BMG). BCL-XL degradation at each indicated concentration was normalized with DMSO control. The BCL-XL degradation curves were plotted using a four-parameter logistic model. For compounds displaying hook effects, curve fitting was performed using bottom point of hook curves (i.e., the point of Ymin) as bottom plateau to calculate EC50. For compounds with multiple data points, the geometric mean is presented.
Background: HiBiT is a short tag that completes a luciferase, so light tracks the accessible tagged protein.

Turning to `Cn1nc(C2CCC(=O)NC2=O)c2ccc(NC(=O)CN3CCC4(CC3)CC(Oc3ccc(-c5ccc(N6CCc7cccc(C(=O)Nc8nc9ccccc9s8)c7C6)nc5C(=O)O)c(C(F)(F)F)c3)C4)nc21` (centres unmarked) [Compound 193], the DC50 was in the range of 10 to 100 nM and the “Ymin (24 h)” value is given as “B (30% ≤ Ymin < 50%)”.
In the same order, the values of `Cn1nc(C2CCC(=O)NC2=O)c2ccc(NC(=O)CN3CCC(CCCOc4ccc(-c5ccc(N6CCc7cccc(C(=O)Nc8nc9ccccc9s8)c7C6)nc5C(=O)O)c(C(F)(F)F)c4)CC3)c(F)c21` (centres unmarked) [Compound 183] are 10 to 100 nM and “B (30% ≤ Ymin < 50%)”.
On to `Cc1c(OC2CC3(CCN(CC(=O)Nc4ccc5c(C6CCC(=O)NC6=O)nn(C)c5c4)CC3)C2)cccc1-c1ccc(N2CCc3cccc(C(=O)Nc4nc5ccccc5s4)c3C2)nc1C(=O)O` (centres unmarked) [Compound 113, 6-[8-(1,3-benzothiazol-2-ylcarbamoyl)-3,4-dihydro-1H-isoquinolin-2-yl]-3-[3-[[7-[2-[[3-(2,6-dioxo-3-piperidyl)-1-methyl-indazol-6-yl]amino]-2-oxo-ethyl]-7-azaspiro[3.5]nonan-2-yl]oxy]-2-methyl-phenyl]pyridine-2-carboxylic acid], for which the DC50 was below 10 nM and the “Ymin (24 h)” value is on record as “B (30% ≤ Ymin < 50%)”.
In the case of `Cc1cc(OC[C@@H]2C[C@@H]2C2CCN(CC(=O)Nc3ccc4c(C5CCC(=O)NC5=O)nn(C)c4c3)CC2)ccc1-c1ccc(N2CCc3cccc(C(=O)Nc4nc5ccccc5s4)c3C2)nc1C(=O)O` (single isomer, unassigned) [Compound 1003d], the DC50 is below 10 nM and the “Ymin (24 h)” value was “A (Ymin < 30%)”.
For the molecule `COc1c(NC(=O)CN2CC[C@@H](CCCOc3cccc(-c4ccc(N5CCc6ccnc(C(=O)Nc7nc8ccccc8s7)c6C5)nc4C(=O)O)c3C)C[C@@H]2C)ccc2c(C3CCC(=O)NC3=O)nn(C)c12` (some centres unmarked) [Compound 216b], the DC50 is below 10 nM and the “Ymin (24 h)” value is “B (30% ≤ Ymin < 50%)”.
The matching figures for `Cc1c(OCCCC2CCN(CC(=O)Nc3ccc4c(C5CCC(=O)NC5=O)nn(C)c4n3)CC2)cccc1-c1ccc(N2CCc3cccc(C(=O)Nc4nc5ccccc5s4)c3C2)nc1C(=O)O` (centres unmarked) [Compound 101]: 10 to 100 nM and “C (50% ≤ Ymin < 70%)”.
The matching figures for `Cc1cc(O[C@H](C)CCC2CCN(CC(=O)Nc3ccc4c(C5CCC(=O)NC5=O)nn(C)c4c3F)CC2)ccc1-c1ccc(N2CCc3cccc(C(=O)Nc4nc5ccccc5s4)c3C2)nc1C(=O)O` (single isomer, unassigned) [Compound 224b]: 10 to 100 nM and “A (Ymin < 30%)”.
In the same order, the values of `Cc1cc(OCCCC2CCN(CCNc3ccc4c(C5CCC(=O)NC5=O)nn(C)c4c3)CC2)ccc1-c1ccc(N2CCc3cccc(C(=O)Nc4nc5ccccc5s4)c3C2)nc1C(=O)O` (centres unmarked) [Compound 179, 6-(8-(benzo[d]thiazol-2-ylcarbamoyl)-3,4-dihydroisoquinolin-2(1H)-yl)-3-(4-(3-(1-(2-((3-(2,6-dioxopiperidin-3-yl)-1-methyl-1H-indazol-6-yl)amino)ethyl)piperidin-4-yl)propoxy)-2-methylphenyl)picolinic acid] are below 10 nM and “A (Ymin < 30%)”.
Take `C[C@H]1C[C@H](CCCOc2ccc(-c3ccc(N4CCc5cccc(C(=O)Nc6nc7ccccc7s6)c5C4)nc3C(=O)O)c(C(F)(F)F)c2)CCN1CC(=O)Nc1ccc2c(C3CCC(=O)NC3=O)nn(C)c2c1` (some centres unmarked) [Compound 209b]: the DC50 was 10 to 100 nM and the “Ymin (24 h)” value was “B (30% ≤ Ymin < 50%)”.
In the same order, the values of `Cc1c(OCC[C@@H]2C[C@@H]3CN(CC(=O)Nc4ccc5c(C6CCC(=O)NC6=O)nn(C)c5c4)C[C@@H]3C2)cccc1-c1ccc(N2CCc3cccc(C(=O)Nc4nc5ccccc5s4)c3C2)nc1C(=O)O` (some centres unmarked) [Compound 173a] are below 10 nM and “B (30% ≤ Ymin < 50%)”.
The matching figures for `COc1c(NC(=O)CN2CC[C@@H](CCCOc3ccc(-c4ccc(N5CCc6cccc(C(=O)Nc7nc8ccccc8s7)c6C5)nc4C(=O)O)c(C)c3)C[C@H]2C)ccc2c(C3CCC(=O)NC3=O)nn(C)c12` (some centres unmarked) [Compound 210d]: 10 to 100 nM and “A (Ymin < 30%)”.
The matching figures for `Cc1c(OC[C@@H]2C[C@@H]2CC2CCN(CC(=O)Nc3ccc4c(C5CCC(=O)NC5=O)nn(C)c4c3)CC2)cccc1-c1ccc(N2CCc3cccc(C(=O)Nc4nc5ccccc5s4)c3C2)nc1C(=O)O` (single isomer, unassigned) [Compound 1004c]: below 10 nM and “B (30% ≤ Ymin < 50%)”.
`COc1c(NC(=O)CN2CCC(CCCOc3ccc(-c4ccc(N5CCc6cccc(C(=O)Nc7nc8ccccc8s7)c6C5)nc4C(=O)O)c(C(F)(F)F)c3)CC2)ccc2c(C3CCC(=O)NC3=O)nn(C)c12` (centres unmarked) [Compound 142]: the DC50 fell in the range of 10 to 100 nM and the “Ymin (24 h)” value is given as “A (Ymin < 30%)”.
On to `C[C@@H]1C[C@@H](CCCOc2cccc(-c3ccc(N4CCc5cccc(C(=O)Nc6nc7ccccc7s6)c5C4)nc3C(=O)O)c2C(F)(F)F)CCN1CC(=O)Nc1ccc2c(C3CCC(=O)NC3=O)nn(C)c2c1` (some centres unmarked) [Compound 215c], for which the DC50 was 10 to 100 nM and the “Ymin (24 h)” value is listed as “B (30% ≤ Ymin < 50%)”.
The matching figures for `Cc1cc(OCC2CC3(CCN(CC(=O)Nc4cc5c(cc4F)c(C4CCC(=O)NC4=O)nn5C)CC3)C2)ccc1-c1ccc(N2CCc3cccc(C(=O)Nc4nc5ccccc5s4)c3C2)nc1C(=O)O` (centres unmarked) [Compound 123]: 10 to 100 nM and “B (30% ≤ Ymin < 50%)”.
In the case of `Cc1c(NCCCC2CCN(CC(=O)Nc3ccc4c(C5CCC(=O)NC5=O)nn(C)c4c3)CC2)cccc1-c1ccc(N2CCc3cccc(C(=O)Nc4nc5ccccc5s4)c3C2)nc1C(=O)O` (centres unmarked) [Compound 217], the DC50 was below 10 nM and the “Ymin (24 h)” value is recorded as “B (30% ≤ Ymin < 50%)”.
The matching figures for `Cc1c(OCCCC2CCN(CCNc3ccc4c(C5CCC(=O)NC5=O)nn(C)c4c3)CC2)cccc1-c1ccc(N2CCc3cccc(C(=O)Nc4nc5ccccc5s4)c3C2)nc1C(=O)O` (centres unmarked) [Compound 150, 6-[8-(1,3-benzothiazol-2-ylcarbamoyl)-3,4-dihydro-1H-isoquinolin-2-yl]-3-[3-[3-[1-[2-[[3-(2,6-dioxo-3-piperidyl)-1-methyl-indazol-6-yl]amino]ethyl]-4-piperidyl]propoxy]-2-methyl-phenyl]pyridine-2-carboxylic acid]: below 10 nM and “B (30% ≤ Ymin < 50%)”.
On to `Cc1c(OCCN2CCCC23CCN(CC(=O)Nc2ccc4c(C5CCC(=O)NC5=O)nn(C)c4c2)CC3)cccc1-c1ccc(N2CCc3cccc(C(=O)Nc4nc5ccccc5s4)c3C2)nc1C(=O)O` (centres unmarked) [Compound 177], for which the DC50 was below 10 nM and the “Ymin (24 h)” value is “B (30% ≤ Ymin < 50%)”.
Turning to `COc1c(NC(=O)CN2CC[C@H](CCCOc3ccc(-c4ccc(N5CCc6cccc(C(=O)Nc7nc8ccccc8s7)c6C5)nc4C(=O)O)c(C)c3)C[C@@H]2C)ccc2c(C3CCC(=O)NC3=O)nn(C)c12` (some centres unmarked) [Compound 210b], the DC50 lay in the range of 10 to 100 nM and the “Ymin (24 h)” value was “A (Ymin < 30%)”.
The matching figures for `Cc1c(OC[C@@H]2C[C@H]2CC2CCN(CC(=O)Nc3ccc4c(C5CCC(=O)NC5=O)nn(C)c4c3)CC2)cccc1-c1ccc(N2CCc3cccc(C(=O)Nc4nc5ccccc5s4)c3C2)nc1C(=O)O` (single isomer, unassigned) [Compound 1004b]: 10 to 100 nM and “B (30% ≤ Ymin < 50%)”.
For the molecule `Cc1c(OCC2CC3(CCN(CCOc4ccc5c(C6CCC(=O)NC6=O)nn(C)c5c4)CC3)C2)cccc1-c1ccc(N2CCc3cccc(C(=O)Nc4nc5ccccc5s4)c3C2)nc1C(=O)O` (centres unmarked) [Compound 152, 6-(8-(benzo[d]thiazol-2-ylcarbamoyl)-3,4-dihydroisoquinolin-2(1H)-yl)-3-(3-((7-(2-((3-(2,6-dioxopiperidin-3-yl)-1-methyl-1H-indazol-6-yl)oxy)ethyl)-7-azaspiro[3.5]nonan-2-yl)methoxy)-2-methylphenyl)picolinic acid], the DC50 was below 10 nM and the “Ymin (24 h)” value was “B (30% ≤ Ymin < 50%)”.
In the same order, the values of `COc1c(NC(=O)CN2CCC3(CC2)CC(Oc2cccc(-c4ccc(N5CCc6cccc(C(=O)Nc7nc8ccccc8s7)c6C5)nc4C(=O)O)c2C(F)(F)F)C3)ccc2c(C3CCC(=O)NC3=O)nn(C)c12` (centres unmarked) [Compound 166, 6-(8-(benzo[d]thiazol-2-ylcarbamoyl)-3,4-dihydroisoquinolin-2(1H)-yl)-3-(3-((7-(2-((3-(2,6-dioxopiperidin-3-yl)-7-methoxy-1-methyl-1H-indazol-6-yl)amino)-2-oxoethyl)-7-azaspiro[3.5]nonan-2-yl)oxy)-2-(trifluoromethyl)phenyl)picolinic acid] are 10 to 100 nM and “B (30% ≤ Ymin < 50%)”.
